# Data published in patent US10138232B2, “Naphthyridinedione derivatives” (NOVARTIS AG, priority 2014, dated 2018).
# Test system: CFTR-Y122X (GFP-CFTR-Y122X-Renilla construct) in Hek293 cell lines
# Experiment: CFTR-Y122X assay (dual reporter readthrough, Renilla luminescence)
# Type: cell-based
# Settings: Homo sapiens; for AC50: nonsense mutation suppression in the CFTR-Y122X assay; for AC50 / Emax: compounds incubated 24 h, tested up to 100 μM; for Emax: nonsense mutation suppression, 100% activity = 14 mM paromomycin, read-out: Amax
# From the text: In particular, compounds of formula (I), (I′), (Ia), (Ia′) or (Ib) I act as nonsense mutation suppressors on frequent PTCs, e.g. on Y122X in the mRNA of the cystic fibrosis conductance regulator protein (CFTR). This can be determined in vitro, for example, using cell lines expressing GFP-CFTR-Y122X-Renilla constructs as described herein.
# Activity of compounds of the present invention was examined in recombinant, dual reporter isogenic Hek293 cell lines (“CFTR-Y122X assay”). The engineered reporter constructs contained the 18 bp sequence strech corresponding to a common Y122X PTC mutation in CFTR class I mutant patients (see Sermet-Gaudelus, BMC Medicine, 2007, 5(5)). Instead of a tyrosine (Y) in position 122 of the CFTR protein a TGA stop codon interrupts the open reading frame (Y122X) of the corresponding mRNA. This TGA stop codon triplet (followed by the pyrimidine base cytosine) is permissive to aminoglycoside mediated translational readthrough which served as positive control for high throughput screening. A corresponding TAA stop codon variant and a wildtype non mutated construct was used for confirmation and counter screening. The CFTR sequence was sandwiched between an eGFP reporter, and a triple myc tag sequence fused to a full length Renilla reporter. All sequences, including an intron containing one positioned pre-eGFP (b-globin intron) were cloned in frame. The corresponding expression constructs were stably expressed in the isogenic HEK-R4 cell host (Invitrogen Incorp.) and selected by blasticidin resistance. The isogenic integration of the construct minimizes gene dose effects and improves assay reproducibility. Stably integrated single cell derived clones were selected and characterized for aminoglycoside mediated readthrough. […] Readthrough of Y122X accumulates an intracellular localized fusion protein approximately 65.5 kDa in size as controlled by western blot analysis and immunofluorescence using an anti-renilla antibody. The eGFP reporter pre-PTC mutation serves as visual control for genetic stability of the screening clones and minimizes protein degradation of small fusion protein amounts. In the assay, compound concentration was 10 μM. In miniaturized 1536 well format 2000 cells were dispensed in 4 μl/well and incubated for 24 h at 37° C., 5% CO2. 40 nl compounds were placed on the cells with control wells containing 1 ul Paramomycin and 14.4 mM final concentration. Compounds were incubated for 24 h. Renilla Glo substrate (2.5 ul) was added and plates were centrifuged and processed for luminescence measurement using various readers. Activity calculation was done using the equation: A1(%)=100*(S−NC)/(AC−NC) where AC, NC and S correspond to active controls (injection of Stimulation buffer=100% stimulation), neutral controls (buffer injection which Iloprost EC10) and screening samples (S). NC corresponds to 0% activity whereas AC is 100% activity (14 mM paromomycin). False positive artefacts were removed in confirmation and validation screening using the same assay format followed by counterscreening using the respective wildtype construct (w/o PTC mutation) cell model. Compounds were tested up to 100 μM compound concentration.
smiles,measurement,setting,value
"CC(C)c1cc2[nH]c3ccccc3c(=O)c2c(=O)n1-c1ccccc1 [Example 1.3, 3-isopropyl-2-phenylbenzo[b][1,6]naphthyridine-1,10(2H,5H)-dione]",AC50,,1.1 µM
same,Emax,,281%
"O=c1c2ccccc2[nH]c2cc(C3CCC3)n(-c3ccccc3)c(=O)c12 [Example 1.1, 3-Cyclobutyl-2-phenylbenzo[b][1,6]naphthyridine-1,10(2H,5H)-dione]",AC50,,0.6 µM
same,Emax,,219%
"CC(C)c1cc2[nH]c3ccccc3c(=O)c2c(=O)n1-c1ccccn1 [Example 2.9, 3-isopropyl-2-(pyridin-2-yl)benzo[b][1,6]naphthyridine-1,10(2H,5H)-dione]",AC50,,4.2 µM
same,Emax,,198%
"O=c1c2sccc2[nH]c2cc(C3CCC3)n(-c3ccccc3)c(=O)c12 [Example 1.35, 6-cyclobutyl-7-phenylthieno[3,2-b][1,6]naphthyridine-8,9(4H,7H)-dione]",AC50,,0.4 µM
same,Emax,,126%
"Cn1c2ccc(Cl)cc2c(=O)c2c(=O)n(-c3ccccc3)c(C3CCC3)cc21 [Example 1.42, 8-chloro-3-cyclobutyl-5-methyl-2-phenylbenzo[b][1,6]naphthyridine-1,10(2H,5H)-dione]",AC50,,3.9 µM
same,Emax,,134%
"O=c1c2c([nH]c3cc(C4CCC4)n(-c4ccccc4)c(=O)c13)CCC2 [Example 1.26, 3-cyclobutyl-2-phenyl-5,6,7,8-tetrahydro-1H-cyclopenta[b][1,6]naphthyridine-1,9(2H)-dione]",AC50,,3.3 µM
same,Emax,,229%
"CC(C)c1cc2c(c(=O)c3ccsc3n2C)c(=O)n1-c1ccccc1 [Example 1.13, 7-isopropyl-9-methyl-6-phenylthieno[2,3-b][1,6]naphthyridine-4,5(6H,9H)-dione]",AC50,,8.6 µM
same,Emax,,445%
"Cc1cc2c(s1)c(=O)c1c(=O)n(-c3ccccc3)c(C(C)C)cc1n2C [Example 1.19, 6-isopropyl-2,4-dimethyl-7-phenylthieno[3,2-b][1,6]naphthyridine-8,9(4H,7H)-dione]",AC50,,12.8 µM
same,Emax,,253%
COc1ccc2c(c1)c(=O)c1c(=O)n(-c3ccccc3)c(C(C)C)cc1n2C [Example 1.49],Emax,,17%
"Cn1c2ccccc2c(=O)c2c(=O)n(C3CCCC3)c(C3CCC3)cc21 [Example 2.2, 3-cyclobutyl-2-cyclopentyl-5-methylbenzo[b][1,6]naphthyridine-1,10(2H,5H)-dione]",AC50,,2.1 µM
same,Emax,,262%
"Cn1c2ccccc2c(=O)c2c(=O)n(-c3ccccn3)c(C3CCC3)cc21 [Example 2.6, 3-cyclobutyl-5-methyl-2-(pyridin-2-yl)benzo[b][1,6]naphthyridine-1,10(2H,5H)-dione]",AC50,,3.3 µM
same,Emax,,232%
"Cc1ccc2[nH]c3cc(C(C)C)n(-c4ccccc4)c(=O)c3c(=O)c2c1 [Example 1.9, 3-isopropyl-8-methyl-2-phenylbenzo[b][1,6]naphthyridine-1,10(2H,5H)-dione]",AC50,,1.2 µM
same,Emax,,249%
"Cc1[nH]c2cc(C3CCC3)n(-c3ccccc3)c(=O)c2c(=O)c1C [Example 1.27, 7-cyclobutyl-2,3-dimethyl-6-phenyl-1,6-naphthyridine-4,5(1H,6H)-dione]",AC50,,3 µM
same,Emax,,206%
"NC[C@@H]1O[C@H](O[C@H]2[C@@H](O)[C@H](O[C@@H]3[C@@H](O)[C@H](N)C[C@H](N)[C@H]3O[C@H]3O[C@H](CO)[C@@H](O)[C@H](O)[C@H]3N)O[C@@H]2CO)[C@H](N)[C@@H](O)[C@@H]1O [paromomycin, reference compound]",EC50,"clone pursued for HTS assay development, read-out: EC50 (response of selected clone, aminoglycoside mediated readthrough)",1500 µM
"Cc1cc2[nH]c3cc(C(C)C)n(-c4ccccc4)c(=O)c3c(=O)c2s1 [Example 1.18, 6-isopropyl-2-methyl-7-phenylthieno[3,2-b][1,6]naphthyridine-8,9(4H,7H)-dione]",AC50,,3.9 µM
same,Emax,,240%
"CC(C)c1cc2[nH]c3ccccc3c(=O)c2c(=O)n1-n1cccc1 [Example 2.17, 3-isopropyl-2-(1H-pyrrol-1-yl)benzo[b][1,6]naphthyridine-1,10(2H,5H)-dione]",AC50,,9 µM
same,Emax,,237%
